Reference: the supplement of paper PMC10307832

Tests used:
Assay in all cases: relative viability (nuclei count vs DMSO), 5 days (fraction); higher = more cells survive
NCI-H2228 = system: NCI-H2228
Summary of the method: (§1)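 Relative viability was taken as the ratio of nuclei in treated wells to nuclei in vehicle wells. Lung cancer cell lines in 1536-well plates received compounds by pin tool one day after seeding, either one drug alone or a fixed anchor-drug dose plus five library-drug doses (not always all listed) in √10 steps. Nuclei were counted on 4× images after 5 days of treatment, and values are medians of duplicate plates.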

NCI-H1793 = system: NCI-H1793
Summary of the method: as §1

NCI-H1666 = system: NCI-H1666
Summary of the method: as §1

LU99A = system: LU99A
Summary of the method: as §1

LOU-NH91 = system: LOU-NH91
Summary of the method: as §1

NCI-H1355 = system: NCI-H1355
Summary of the method: as §1

NCI-H460 = system: NCI-H460
Summary of the method: as §1

NCI-H23 = system: NCI-H23
Summary of the method: as §1

BEN = system: BEN
Summary of the method: as §1

SW 1573 = system: SW 1573
Summary of the method: as §1

LC-2-ad = system: LC-2-ad
Summary of the method: as §1

A-427 = system: A-427
Summary of the method: as §1

NCI-H650 = system: NCI-H650
Summary of the method: as §1

PC-3 [JPC-3] = system: PC-3 [JPC-3]
Summary of the method: as §1

LCLC-97TM1 = system: LCLC-97TM1
Summary of the method: as §1

NCI-H1993 = system: NCI-H1993
Summary of the method: as §1

NCI-H838 = system: NCI-H838
Summary of the method: as §1

NCI-H1915 = system: NCI-H1915
Summary of the method: as §1

NCI-H520 = system: NCI-H520
Summary of the method: as §1

RERF-LC-KJ = system: RERF-LC-KJ
Summary of the method: as §1

EKVX = system: EKVX
Summary of the method: as §1

NCI-H2347 = system: NCI-H2347
Summary of the method: as §1

O=c1[nH]c2ccccc2n1C1CCN(CCCC(c2ccc(F)cc2)c2ccc(F)cc2)CC1 [Pimozide] + C[C@]1(O)C[C@@H](c2nc(-c3ccc4ccc(-c5ccccc5)nc4c3)c3c(N)nccn32)C1 [Linsitinib] (partner 1 µM)
relative viability (NCI-H2228; first compound 0.08 µM): 0.475
relative viability (NCI-H2228; first compound 0.253 µM): 0.909
relative viability (NCI-H2228; first compound 0.8 µM): 0.404
relative viability (NCI-H2228; first compound 2.53 µM): 0.392
relative viability (NCI-H2228; first compound 8 µM): 0.291
relative viability (NCI-H1793; first compound 0.08 µM): 0.871
relative viability (NCI-H1793; first compound 0.253 µM): 0.612
relative viability (NCI-H1793; first compound 0.8 µM): 0.861
relative viability (NCI-H1793; first compound 2.53 µM): 0.88
relative viability (NCI-H1793; first compound 8 µM): 0.831
relative viability (NCI-H1666; first compound 0.08 µM): 0.786
relative viability (NCI-H1666; first compound 0.253 µM): 0.723
relative viability (NCI-H1666; first compound 0.8 µM): 0.711
relative viability (NCI-H1666; first compound 2.53 µM): 0.73
relative viability (NCI-H1666; first compound 8 µM): 0.635
relative viability (LU99A; first compound 0.08 µM): 0.544
relative viability (LU99A; first compound 0.253 µM): 0.409
relative viability (LU99A; first compound 0.8 µM): 0.514
relative viability (LU99A; first compound 2.53 µM): 0.596
relative viability (LU99A; first compound 8 µM): 0.504
relative viability (LOU-NH91; first compound 0.08 µM): 0.488
relative viability (LOU-NH91; first compound 0.253 µM): 0.97
relative viability (LOU-NH91; first compound 0.8 µM): 0.929
relative viability (LOU-NH91; first compound 2.53 µM): 1.1
relative viability (LOU-NH91; first compound 8 µM): 0.959
relative viability (NCI-H1355; first compound 0.08 µM): 0.701
relative viability (NCI-H1355; first compound 0.253 µM): 0.804
relative viability (NCI-H1355; first compound 0.8 µM): 0.758
relative viability (NCI-H1355; first compound 2.53 µM): 0.803
relative viability (NCI-H1355; first compound 8 µM): 0.762
relative viability (NCI-H460; first compound 0.08 µM): 0.964
relative viability (NCI-H460; first compound 0.253 µM): 0.725
relative viability (NCI-H460; first compound 0.8 µM): 0.707
relative viability (NCI-H460; first compound 2.53 µM): 0.727
relative viability (NCI-H460; first compound 8 µM): 0.649
relative viability (NCI-H23; first compound 0.08 µM): 0.609
relative viability (NCI-H23; first compound 0.253 µM): 0.577
relative viability (NCI-H23; first compound 0.8 µM): 0.49
relative viability (NCI-H23; first compound 2.53 µM): 0.553
relative viability (NCI-H23; first compound 8 µM): 0.513
relative viability (BEN; first compound 0.08 µM): 1.07
relative viability (BEN; first compound 0.253 µM): 1.02
relative viability (BEN; first compound 0.8 µM): 0.856
relative viability (BEN; first compound 2.53 µM): 0.88
relative viability (BEN; first compound 8 µM): 0.892
relative viability (SW 1573; first compound 0.08 µM): 0.744
relative viability (SW 1573; first compound 0.253 µM): 0.778
relative viability (SW 1573; first compound 0.8 µM): 0.75
relative viability (SW 1573; first compound 2.53 µM): 0.721
relative viability (SW 1573; first compound 8 µM): 0.853
relative viability (LC-2-ad; first compound 0.08 µM): 0.818
relative viability (LC-2-ad; first compound 0.253 µM): 0.819
relative viability (LC-2-ad; first compound 0.8 µM): 0.797
relative viability (LC-2-ad; first compound 2.53 µM): 0.891
relative viability (LC-2-ad; first compound 8 µM): 0.746
relative viability (A-427; first compound 0.08 µM): 0.985
relative viability (A-427; first compound 0.253 µM): 1.14
relative viability (A-427; first compound 0.8 µM): 1.13
relative viability (A-427; first compound 2.53 µM): 1.15
relative viability (A-427; first compound 8 µM): 1.08
relative viability (NCI-H650; first compound 0.08 µM): 0.842
relative viability (NCI-H650; first compound 0.253 µM): 0.792
relative viability (NCI-H650; first compound 0.8 µM): 0.911
relative viability (NCI-H650; first compound 2.53 µM): 0.791
relative viability (NCI-H650; first compound 8 µM): 0.847
relative viability (PC-3 [JPC-3]; first compound 0.253 µM): 0.985
relative viability (PC-3 [JPC-3]; first compound 0.8 µM): 0.896
relative viability (PC-3 [JPC-3]; first compound 2.53 µM): 0.983
relative viability (PC-3 [JPC-3]; first compound 8 µM): 0.883
relative viability (LCLC-97TM1; first compound 0.08 µM): 0.179
relative viability (LCLC-97TM1; first compound 0.253 µM): 0.166
relative viability (LCLC-97TM1; first compound 0.8 µM): 0.171
relative viability (LCLC-97TM1; first compound 2.53 µM): 0.169
relative viability (LCLC-97TM1; first compound 8 µM): 0.146
relative viability (NCI-H1993; first compound 0.08 µM): 0.662
relative viability (NCI-H1993; first compound 0.253 µM): 0.659
relative viability (NCI-H1993; first compound 0.8 µM): 0.571
relative viability (NCI-H1993; first compound 2.53 µM): 0.725
relative viability (NCI-H1993; first compound 8 µM): 0.755
relative viability (NCI-H838; first compound 0.08 µM): 1.01
relative viability (NCI-H838; first compound 0.253 µM): 0.999
relative viability (NCI-H838; first compound 0.8 µM): 0.885
relative viability (NCI-H838; first compound 2.53 µM): 1.01
relative viability (NCI-H838; first compound 8 µM): 1.04
relative viability (NCI-H1915; first compound 0.08 µM): 1.09
relative viability (NCI-H1915; first compound 0.253 µM): 1.06
relative viability (NCI-H1915; first compound 0.8 µM): 0.921
relative viability (NCI-H1915; first compound 2.53 µM): 1.09
relative viability (NCI-H1915; first compound 8 µM): 1.1
relative viability (NCI-H520; first compound 0.08 µM): 0.894
relative viability (NCI-H520; first compound 0.253 µM): 1
relative viability (NCI-H520; first compound 0.8 µM): 1.01
relative viability (NCI-H520; first compound 2.53 µM): 0.995
relative viability (NCI-H520; first compound 8 µM): 0.937
relative viability (RERF-LC-KJ; first compound 0.08 µM): 0.885
relative viability (RERF-LC-KJ; first compound 0.253 µM): 0.813
relative viability (RERF-LC-KJ; first compound 0.8 µM): 0.787
relative viability (RERF-LC-KJ; first compound 2.53 µM): 0.842
relative viability (RERF-LC-KJ; first compound 8 µM): 0.8
relative viability (EKVX; first compound 0.253 µM): 0.837
relative viability (EKVX; first compound 0.8 µM): 0.901
relative viability (EKVX; first compound 2.53 µM): 0.969
relative viability (EKVX; first compound 8 µM): 0.953
relative viability (NCI-H2347; first compound 0.08 µM): 1.03
relative viability (NCI-H2347; first compound 0.253 µM): 0.941
relative viability (NCI-H2347; first compound 0.8 µM): 0.836
relative viability (NCI-H2347; first compound 2.53 µM): 0.944
relative viability (NCI-H2347; first compound 8 µM): 0.958
